Read-outs that look alike come from different tables or passages of the source. Starred links: 1 amine or outer side, 2 acyl side, 3 side chain; linkers in the order of their positions; H or OH if unused. Non-standard residues stand in square brackets, D forms with d. Residues, ends and D or L forms follow the SMILES beside them. ξ: configuration not given here. *: point of attachment. dNMe2Nal = CN[C@H](Cc1ccc2ccccc2c1)C(=O)O; dPhe(4-Cl) = N[C@H](Cc1ccc(Cl)cc1)C(=O)O; 1Nal = N[C@@H](Cc1cccc2ccccc12)C(=O)O; 2Nal = N[C@@H](Cc1ccc2ccccc2c1)C(=O)O; d2Nal = N[C@H](Cc1ccc2ccccc2c1)C(=O)O; β3hAib = CC(C)(CC(=O)[*:2])N[*:1]; ξ2Nal = NC(Cc1ccc2ccccc2c1)C(=O)O; αMeF = C[C@](N)(Cc1ccccc1)C(=O)O; β3hF = N[C@H](CC(=O)O)Cc1ccccc1; Isonicotinoyl = O=C(c1ccncc1)*; Ac6c = NC1(C(=O)O)CCCCC1; Morpholide = C1CN(*)CCO1; Inp = O=C(O)C1CCNCC1; ξK = NCCCCC(N)C(=O)O; Ahp = NCCCCCCC(=O)O; Ava = NCCCCC(=O)O; GABA = NCCCC(=O)O
Key:
[1] = molecular target: rat pituitary cells (Rattus norvegicus, UniProt O08725); details: GH release, 15 min incubation
In short: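 Primary rat anterior pituitary cells, cultured three days in DME low glucose/10% FBS, were washed, pre-incubated twice for 15 min, then challenged 15 min with test compounds (DMSO ≤0.1%) at 37 °C. Released GH was measured by two-site ELISA; EC50 came from 4-parameter fits, mean of three to four independent determinations.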

[2] = system: growth hormone secretion; experiment: GHRP induced growth hormone secretion, intravenous administration (Rat IV); format: in vivo; details: serum GH 10 min after injection; for RAT IV ED50: iv injection
In short: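 Female Sprague Dawley rats (24-30 days, 50-90 g) under intraperitoneal pentobarbitone received graded intravenous tail-vein peptide doses in pH 5.0 sodium acetate/mannitol buffer 20 min post-anaesthesia. Blood by cardiac puncture 10 min after dosing; serum GH measured by rat GH ELISA in duplicate.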

[3] = read-out: PIT Cell EC50, Table IV, formula III compounds
[4] = read-out: PIT Cell EC50, Table III, formula IV compounds
[5] = read-out: PIT Cell EC50, Table V, formula II compounds

rat pituitary cells, sequence (O08725 whole entry): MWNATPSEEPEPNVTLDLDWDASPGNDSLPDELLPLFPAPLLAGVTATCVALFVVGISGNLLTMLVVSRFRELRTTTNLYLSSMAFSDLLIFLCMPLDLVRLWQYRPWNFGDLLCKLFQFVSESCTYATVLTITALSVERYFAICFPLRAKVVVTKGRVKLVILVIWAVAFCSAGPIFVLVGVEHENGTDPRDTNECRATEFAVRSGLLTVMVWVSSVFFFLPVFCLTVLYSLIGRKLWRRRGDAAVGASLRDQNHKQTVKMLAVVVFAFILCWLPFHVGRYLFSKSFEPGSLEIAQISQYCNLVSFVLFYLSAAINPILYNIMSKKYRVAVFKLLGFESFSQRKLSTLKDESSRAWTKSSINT

Row | SMILES | EC50 [1, 3] | RAT IV ED50 ([2]; Table IV) | EC50 [1, 4] | RAT IV ED50 ([2]; Table III) | other results
1 | NC(=O)[C@H](Cc1ccccc1)NC(=O)[C@@H](Cc1ccc2ccccc2c1)NC(=O)[C@@H](Cc1ccc(Cl)cc1)NC(=O)C1CCNCC1 [(inip) chf b F amide] (H-[Inp][dPhe(4-Cl)][d2Nal]F-NH2) | 2.2 nM | 10 µg | – | – | –
2 | NC(=O)[C@H](Cc1ccccc1)NC(=O)[C@@H](Cc1c[nH]c2ccccc12)NC(=O)[C@@H](Cc1ccc2ccccc2c1)NC(=O)C1CCNCC1 [(inip) b w F amide, (inip)-DβNal-(D-Trp)-Phe-amide] (H-[Inp][d2Nal][dW]F-NH2) | 0.1 nM | 0.67 µg | – | – | –
3 | NCCCC[C@H](NC(=O)[C@H](Cc1ccccc1)NC(=O)[C@@H](Cc1ccc2ccccc2c1)NC(=O)[C@@H](Cc1ccc2ccccc2c1)NC(=O)c1ccncc1)C(N)=O [(pyc) b b F K amide] (Isonicotinoyl-[d2Nal][d2Nal]FK-NH2) | – | – | > 300 nM | 200 µg | –
4 | C[C@H](NC(=O)[C@@H](Cc1ccc2ccccc2c1)NC(=O)[C@@H](C)N)C(=O)N[C@@H](Cc1c[nH]c2ccccc12)C(=O)N[C@H](Cc1ccccc1)C(=O)N[C@@H](CCCCN)C(N)=O [GHRP 2, D Ala-D βNal-Ala-Trp-D Phe-Lys-NH2, reference compound] (H-[dA][d2Nal]AW[dF]K-NH2) | – | – | – | – | EC50 ([1]; read-out: “Pit” Cell EC50, Table II, prior art compounds): 1 nM; Rat IV ED50 ([2]; Table II, iv tail vein injection, anesthetized weanling female rats): 0.35 µg
5 | NCCCCC(NC(=O)[C@H](Cc1cccc2ccccc12)NC(=O)[C@@H](Cc1ccc2ccccc2c1)NC(=O)C(Cc1ccc2ccccc2c1)NC(=O)C1CCNCC1)C(N)=O (stereo partly drawn) [(inip) b b npA K amide, (inip)-DβNal-DβNal-αNal-Lys-amide] (H-[Inp][ξ2Nal][d2Nal][1Nal][ξK]-NH2) | – | – | 0.1 nM | 1 µg | –
6 | NCCCC(=O)N[C@H](Cc1ccc2ccccc2c1)C(=O)N[C@H](Cc1ccc2ccccc2c1)C(=O)N[C@@H](Cc1ccccc1)C(N)=O [(Ab) b b F amide] (H-[GABA][d2Nal][d2Nal]F-NH2) | 3.1 nM | 10 µg | – | – | –
7 | COC(=O)[C@H](Cc1ccccc1)NC(=O)[C@@H](Cc1ccc2ccccc2c1)NC(=O)[C@@H](Cc1ccc2ccccc2c1)NC(=O)C1CCNCC1 [(inip) b b F Me ester] (H-[Inp][d2Nal][d2Nal]F-OMe) | 2.8 nM | 2 µg | – | – | –
8 | NCCCCC(=O)N[C@H](Cc1ccc2ccccc2c1)C(=O)N[C@H](Cc1ccc2ccccc2c1)C(=O)N[C@@H](Cc1ccccc1)C(=O)NCC(N)=O [(Ava) b b F G amide] (H-[Ava][d2Nal][d2Nal]FG-NH2) | – | – | 7.2 nM | 50 µg | –
9 | C[C@@](Cc1ccccc1)(NC(=O)[C@@H](Cc1ccc2ccccc2c1)NC(=O)[C@@H](Cc1ccc2ccccc2c1)NC(=O)C1CCNCC1)C(N)=O [(inip) b b amF amide] (H-[Inp][d2Nal][d2Nal][αMeF]-NH2) | 0.5 nM | 5 µg | – | – | –
10 | NC(=O)C1(NC(=O)[C@@H](Cc2ccc3ccccc3c2)NC(=O)[C@@H](Cc2ccc3ccccc3c2)NC(=O)C2CCNCC2)CCCCC1 [(inip) b b Abx amide] (H-[Inp][d2Nal][d2Nal][Ac6c]-NH2) | 13 nM | 100 µg | – | – | –
11 | NCCCCN(CCc1ccccc1)C(=O)[C@@H](Cc1ccc2ccccc2c1)NC(=O)[C@@H](Cc1ccc2ccccc2c1)NC(=O)C1CCNCC1 [(inip) b b fbd, (inip)-DβNal-DβNal-[N-(2-phenylethyl), N-(4-aminobutyl)] amide] | 0.9 nM | 0.67 µg | – | – | –
12 | CN(C(=O)C1CCNCC1)[C@H](Cc1ccc2ccccc2c1)C(=O)N[C@H](Cc1ccc2ccccc2c1)C(=O)N[C@@H](Cc1ccccc1)C(=O)N1CCOCC1 [(inip) nmb b F mor] (H-[Inp][dNMe2Nal][d2Nal]F-Morpholide) | – | – | 0.8 nM | 10 µg | –
13 | NCCCCCCC(=O)N[C@H](Cc1ccc2ccccc2c1)C(=O)N[C@H](Cc1ccc2ccccc2c1)C(=O)N[C@@H](Cc1ccccc1)C(=O)N[C@@H](CCCCN)C(N)=O [(ahp) b b F K amide] (H-[Ahp][d2Nal][d2Nal]FK-NH2) | – | – | 34.3 nM | 100 µg | –
14 | NCCCCC(=O)N[C@H](Cc1ccc2ccccc2c1)C(=O)N[C@H](Cc1ccc2ccccc2c1)C(=O)N[C@@H](Cc1ccccc1)C(=O)N[C@@H](CCCCN)C(=O)N[C@@H](Cc1ccc(O)cc1)C(N)=O [(Ava) b b F K Y amide] (H-[Ava][d2Nal][d2Nal]FKY-NH2) | – | – | 13.6 nM | 20 µg | –
15 | CN(C(=O)C1CCNCC1)[C@H](Cc1ccc2ccccc2c1)C(=O)N[C@H](Cc1ccc2ccccc2c1)C(=O)N[C@@H](Cc1ccccc1)C(=O)O [(inip) nmb b F acid] (H-[Inp][dNMe2Nal][d2Nal]F-OH) | 1.4 nM | 5 µg | – | – | –
16 | O=C(N[C@H](Cc1ccc2ccccc2c1)C(=O)NCCc1c[nH]c2ccccc12)C1CCNCC1 [(inip) b tra, (inip)-DβNal-[N-tryptaminyl] amide] | – | – | – | – | EC50 [1, 5]: 100 nM; RAT IV ED50 ([2]; Table V): 100 µg

Row | SMILES | EC50 [1, 3] | RAT IV ED50 ([2]; Table IV) | EC50 [1, 4] | RAT IV ED50 ([2]; Table III) | other results
17 | NCCCCC(=O)N[C@H](Cc1ccccc1)C(=O)N[C@H](Cc1c[nH]c2ccccc12)C(=O)N[C@@H](Cc1ccccc1)C(N)=O [(Ava) f w F amide] (H-[Ava][dF][dW]F-NH2) | > 300 nM | 1000 µg | – | – | –
18 | CN[C@H](Cc1ccc2ccccc2c1)C(=O)N[C@H](Cc1ccc2ccccc2c1)C(=O)N[C@@H](Cc1ccccc1)C(=O)N[C@@H](CCCCN)C(N)=O [nmb b F K amide] (H-[dNMe2Nal][d2Nal]FK-NH2) | – | – | > 100 nM | 1000 µg | –
19 | NCCCCC(=O)N[C@H](Cc1ccc2ccccc2c1)C(=O)N[C@H](Cc1ccc2ccccc2c1)C(=O)N[C@@H](Cc1ccccc1)C(=O)N[C@H](CC(N)=O)C(N)=O [(Ava) b b F n amide] (H-[Ava][d2Nal][d2Nal]F[dN]-NH2) | – | – | 10 nM | 12.5 µg | –
20 | CN(C(=O)C1CCNCC1)[C@H](Cc1ccc2ccccc2c1)C(=O)N[C@@H](Cc1ccc2ccccc2c1)C(=O)N[C@@H](Cc1ccccc1)C(=O)O [(inip) nmb B F acid] (H-[Inp][dNMe2Nal][2Nal]F-OH) | 7 nM | 100 µg | – | – | –
21 | NCCCCC(=O)N[C@H](Cc1ccc2ccccc2c1)C(=O)N[C@H](Cc1ccc2ccccc2c1)C(=O)N[C@@H](Cc1ccccc1)C(=O)N[C@H](CCCCN)C(N)=O [(Ava) b b F k amide] (H-[Ava][d2Nal][d2Nal]F[dK]-NH2) | – | – | 17 nM | 33.3 µg | –
22 | NCCCCC(=O)N[C@H](Cc1ccc2ccccc2c1)C(=O)N[C@H](Cc1ccc2ccccc2c1)C(=O)N[C@@H](Cc1ccccc1)C(=O)N[C@@H](CC(N)=O)C(N)=O [(Ava) b b F N amide] (H-[Ava][d2Nal][d2Nal]FN-NH2) | – | – | 7.7 nM | 200 µg | –
23 | NCCCC[C@H](NC(=O)[C@H](Cc1ccccc1)NC(=O)[C@@H](Cc1c[nH]c2ccccc12)NC(=O)[C@@H](Cc1c[nH]c2ccccc12)NC(=O)CN)C(N)=O [G w w F K amide] (H-G[dW][dW]FK-NH2) | – | – | 2.1 nM | 2.5 µg | –
24 | NCCCCC(=O)N[C@H](Cc1ccc2ccccc2c1)C(=O)N[C@H](Cc1ccc2ccccc2c1)C(=O)N[C@@H](Cc1ccccc1)C(N)=O [(Ava) b b F amide] (H-[Ava][d2Nal][d2Nal]F-NH2) | 17.1 nM | 100 µg | – | – | –
25 | O=C(N[C@H](Cc1c[nH]c2ccccc12)C(=O)N[C@@H](CO)Cc1c[nH]c2ccccc12)C1CCNCC1 [(inip) w wol] | – | – | – | – | EC50 [1, 5]: 4 nM; RAT IV ED50 ([2]; Table V): 20 µg
26 | CC(C)(N)CC(=O)N[C@H](Cc1ccc2ccccc2c1)C(=O)N[C@H](Cc1ccc2ccccc2c1)C(=O)N[C@@H](Cc1ccccc1)C(=O)N[C@@H](CCCCN)C(N)=O [(nba) b b F K amide] (β3hAib-[d2Nal][d2Nal]FK-NH2) | – | – | 2.8 nM | 100 µg | –
27 | NC(=O)C[C@H](Cc1ccccc1)NC(=O)[C@@H](Cc1ccc2ccccc2c1)NC(=O)[C@@H](Cc1ccc2ccccc2c1)NC(=O)C1CCNCC1 [(inip) b b hcF amide, (inip)-DβNal-DβNal-(3(S)-3-benzyl-β-Ala)-amide] (H-[Inp][d2Nal][d2Nal][β3hF]-NH2) | 0.2 nM | 2.5 µg | – | – | –
28 | NCCCCNC(=O)[C@H](Cc1ccc2ccccc2c1)NC(=O)[C@H](Cc1ccc2ccccc2c1)NC(=O)[C@@H](Cc1ccccc1)NC(=O)CCCCN [(Ava) f B B bam, (5-aminovaleryl)-DPhe-βNal-βNal-[N-(4-aminobutyl)] amide] | – | – | – | – | EC50 ([1]; read-out: PIT Cell EC50, Table VI, retroinverso compounds of formula V): 22 nM; RAT IV ED50 ([2]; Table VI): 100 µg
29 | NC(=O)[C@H](Cc1cccc2ccccc12)NC(=O)[C@@H](Cc1ccc2ccccc2c1)NC(=O)[C@@H](Cc1ccc2ccccc2c1)NC(=O)C1CCNCC1 [(inip) b b npA amide] (H-[Inp][d2Nal][d2Nal][1Nal]-NH2) | 0.2 nM | 5 µg | – | – | –
30 | NC(=O)[C@H](Cc1ccccc1)NC(=O)[C@@H](Cc1c[nH]c2ccccc12)NC(=O)[C@@H](Cc1c[nH]c2ccccc12)NC(=O)C1CCNCC1 [(inip) w w F amide] (H-[Inp][dW][dW]F-NH2) | 0.9 nM | 5 µg | – | – | –
31 | CN(C(=O)[C@@H](Cc1ccc2ccccc2c1)NC(=O)C1CCNCC1)[C@@H](CN)Cc1ccc2ccccc2c1 [(inip) b mbm] | – | – | – | – | EC50 [1, 5]: 7 nM; RAT IV ED50 ([2]; Table V): 20 µg
32 | NC[C@H](Cc1ccc2ccccc2c1)NC(=O)[C@@H](Cc1ccc2ccccc2c1)NC(=O)C1CCNCC1 [(inip) b Bmn] | – | – | – | – | EC50 [1, 5]: 36 nM; RAT IV ED50 ([2]; Table V): 20 µg

Reference: patent publication US7094869B2, “Low molecular weight peptidomimetic growth hormone secretagogues” (Genentech, Inc., priority 1994, dated 2006)
